# According to EP4656642A1, “ESTROGEN RECEPTOR PROTEOLYSIS TARGETING CHIMERA COMPOUND AND USE THEREOF” (GAN & LEE PHARM CO., LTD, priority 2023, dated 2024):
# Experiments:
# Assay type in all cases: cell-based
# T-47D cells = assay: Inhibition of cell proliferation in T-47D cells (CCK-8, 6 days); conditions: 6 days of treatment, Table 3
# Method in brief: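 T-47D cells at 3,000 cells/well in RPMI 1640 with 10% FBS were exposed to a concentration series of PROTAC compounds for 6 days at 37 °C, 5% CO2. Viability was read by CCK-8, and IC50 values were derived for proliferation inhibition.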
# MCF-7 cells = assay: Inhibition of cell proliferation of MCF-7 cells (CCK-8, 9 days); conditions: treated for 9 days, CCK-8 kit (Table 6)
# Method in brief: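 MCF-7 cells seeded at 800 cells/well in DMEM with 10% FBS, exposed to a range of compound concentrations for 9 days at 37°C, 5% CO2. Viability read by CCK-8; IC50 derived for proliferation inhibition.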
# ERα [1] = target: T1, ERα (Homo sapiens, UniProt P03372); assay: Degradation of ERα in MCF-7 cells (immunoblotting, 4 h)
# T1 sequence (P03372 1-595): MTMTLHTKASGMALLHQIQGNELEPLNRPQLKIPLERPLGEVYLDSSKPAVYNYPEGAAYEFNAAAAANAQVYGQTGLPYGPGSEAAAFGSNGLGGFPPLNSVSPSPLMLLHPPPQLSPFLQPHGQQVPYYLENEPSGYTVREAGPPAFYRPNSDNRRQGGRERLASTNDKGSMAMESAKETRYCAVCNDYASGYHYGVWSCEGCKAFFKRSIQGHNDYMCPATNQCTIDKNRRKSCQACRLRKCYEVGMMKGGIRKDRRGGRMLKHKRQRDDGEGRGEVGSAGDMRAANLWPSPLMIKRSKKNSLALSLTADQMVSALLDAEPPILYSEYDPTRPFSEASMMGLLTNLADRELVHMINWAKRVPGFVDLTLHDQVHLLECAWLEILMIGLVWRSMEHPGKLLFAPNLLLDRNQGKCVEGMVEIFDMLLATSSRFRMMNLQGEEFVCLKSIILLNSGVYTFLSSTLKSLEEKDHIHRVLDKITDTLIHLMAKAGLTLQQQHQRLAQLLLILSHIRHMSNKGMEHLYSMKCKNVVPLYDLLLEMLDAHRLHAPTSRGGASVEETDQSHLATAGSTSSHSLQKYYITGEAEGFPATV
# Method in brief: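 MCF-7 cells treated 4 h at 37°C with compounds at 0.15-1000nM final. ERα in lysates measured by immunoblot, with band grayscale normalized to an internal reference protein. Degradation rate calculated against DMSO-treated control.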
# ERα [2] = target: T1, ERα; assay: Degradation of ERα in T-47D cells (immunoblotting, 4 h); set-up: host or cells: T-47D
# Method in brief: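 T-47D cells were treated with compound (final 0.15-1000 nM, DMSO) for 4 h at 37°C, 5% CO2. Cells were lysed in RIPA buffer with protease inhibitor, and ERα protein in the cleared lysate was measured by immunoblotting.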
SMILES,IC50 (T-47D cells),IC50 (MCF-7 cells),Degradation rate (%) of ERα in MCF-7 cells (ERα [1]; 1nM compound),Degradation rate (%) of ERα in MCF-7 cells (ERα [1]; 10nM compound),Degradation rate (%) of ERα in T-47D cells (ERα [2]; 1nM compound),Degradation rate (%) of ERα in T-47D cells (ERα [2]; 10nM compound)
O=C1CCC(N2Cc3c(ccc4c3OCC43CCN(CC4CCN(CC5CCN(c6ccc([C@@H]7c8ccc(O)cc8CC[C@@H]7c7ccccc7)cc6)CC5)CC4)CC3)C2=O)C(=O)N1 (stereo partly drawn) [A102],20.2 nM,107 nM,36%,73%,16%,51%
C[C@@H]1Cc2c([nH]c3ccccc23)[C@@H](c2c(F)cc(N3CCC4(CCC(N5CCC6(CC5)COc5c6ccc6c5CN(C5CCC(=O)NC5=O)C6=O)CC4)CC3)cc2F)N1CC(F)F (stereo partly drawn) [A103],2.99 nM,13.6 nM,37%,70%,29%,68%
C[C@@H]1Cc2c([nH]c3ccccc23)[C@@H](c2c(F)cc(N3CC4(CCC(N5CCC6(CC5)COc5c6ccc6c5CN(C5CCC(=O)NC5=O)C6=O)CC4)C3)cc2F)N1CC(F)F (stereo partly drawn) [A104],17.1 nM,30.3 nM,15%,70%,35%,72%
O=C1CCC(N2Cc3c(ccc4c3OCC43CCN(CC4(F)CCN(C(=O)C5CCN(c6ccc([C@@H]7c8ccc(O)cc8CC[C@@H]7c7ccccc7)cc6)CC5)CC4)CC3)C2=O)C(=O)N1 (stereo partly drawn) [A105],1.3 nM,26600 nM,7%,43%,38%,73%
C[C@@H]1Cc2c([nH]c3ccccc23)[C@@H](c2c(F)cc(N3CCC(C(=O)N4CCC(N5CCC6(CC5)COc5c6ccc6c5CN(C5CCC(=O)NC5=O)C6=O)CC4)CC3)cc2F)N1CC(F)F (stereo partly drawn) [A106],1.2 nM,190 nM,19%,62%,43%,74%
N#CC1(CN2CCC3(CC2)COc2c3ccc3c2CN(C2CCC(=O)NC2=O)C3=O)CCN(C(=O)C2CCN(c3ccc([C@@H]4c5ccc(O)cc5CC[C@@H]4c4ccccc4)cc3)CC2)CC1 (stereo partly drawn) [A108],1.8 nM,7390 nM,22%,46%,41%,73%
CC1(CN2CCC3(CC2)COc2c3ccc3c2CN(C2CCC(=O)NC2=O)C3=O)CCN(C(=O)C2CCN(c3ccc([C@@H]4c5ccc(O)cc5CC[C@@H]4c4ccccc4)cc3)CC2)CC1 (stereo partly drawn) [A109],2.93 nM,42.8 nM,10%,54%,31%,75%
C[C@@H]1Cc2c([nH]c3ccccc23)[C@@H](c2c(F)cc(N3CCC4(CCN(CC(=O)N5CCC6(CC5)COc5c6ccc6c5CN(C5CCC(=O)NC5=O)C6=O)C4)CC3)cc2F)N1CC(F)F (stereo partly drawn) [A111],1.2 nM,93.6 nM,39%,74%,49%,82%
C[C@@H]1Cc2c([nH]c3ccccc23)[C@@H](c2c(F)cc(N3CCC4(CCN(CC(=O)N5CCC6(CC5)COc5c6ccc6c5CN(C5CCC(=O)NC5=O)C6=O)CC4)CC3)cc2F)N1CC(F)F (stereo partly drawn) [A112],2.01 nM,59.4 nM,15%,63%,40%,78%
CCOC(=O)[C@H]1CC(N2CCC3(CC2)COc2c3ccc3c2CN(C2CCC(=O)NC2=O)C3=O)CCN1C1CC2(CCN(c3ccc([C@@H]4c5ccc(O)cc5CC[C@@H]4c4ccccc4)cc3)CC2)C1 (stereo partly drawn) [A113],4.61 nM,21.6 nM,4%,52%,26%,64%
